Reference: patent publication US12472166B2, “Inhibition of mycobacterial type VII secretion” (priority 2019, dated 2025)

Key:
M. bovis (BCG) = type: cell-based
[1] = tested on: ESX-5 dependent secretion; type: cell-based
[2] = tested on: M. smegmatis overexpressing ethA; type: cell-based
[3] = tested on: EsxA (ESX-1 dependent secretion); type: cell-based
M. avium = assay: Cell viability assay (REMA), susceptibility of bacterial cultures; type: cell-based; conditions: tested up to 80 μM
M. kansasii = assay: as above; type: cell-based; conditions: tested up to 80 μM
Bacillus subtilis = assay: as above; type: cell-based; conditions: highest tested amount (80 μM)
M. marinum = type: cell-based
[4] = tested on: M. marinum overexpressing ethA; type: cell-based
M. interjectum = assay: Cell viability assay (REMA), susceptibility of bacterial cultures; type: cell-based; conditions: tested up to 80 μM
[5] = tested on: fast-growing mycobacteria; assay: as above; type: cell-based; conditions: up to 80 μM
M. tuberculosis = assay: microbe, parasite or virus in culture; type: cell-based
[6] = tested on: PE_PGRS and EsxN (ESX-5 dependent secretion); type: cell-based
Escherichia coli = assay: Cell viability assay (REMA), susceptibility of bacterial cultures; type: cell-based; conditions: highest tested amount (80 μM)
M. tuberculosis H37Rv WT = assay: THP-1 macrophage infection study, CFU counting; type: cell-based, Mycobacterium tuberculosis; conditions: THP-1 macrophages, MOI 1, day 5

COc1ccc(-c2nsc(SCC(=O)NC3CCCC3)n2)cc1 [Compound I-12]
susceptibility (REMA) (M. bovis (BCG)): susceptible | ESX-5 activity, % of the DMSO treated control [1]: 27% | susceptibility on overexpression of ethA [2]: did not render this strain susceptible | secretion of EsxA [3]: reduced secretion of EsxA | susceptibility (REMA) (M. avium): resistant | susceptibility (REMA) (M. kansasii): susceptible | susceptibility (REMA) (Bacillus subtilis): resistant | increase of MIC towards M. marinum when mspA was over-produced (M. marinum): 2 fold | more compound required to significantly reduce viability when mspA was over-produced (M. marinum): 4 fold | reduction in bacterial viability (REMA) (M. marinum): 77% | susceptibility (REMA) (M. marinum): susceptible | increased susceptibility as compared to the parent WT strain [4]: at least 4 fold | susceptibility (REMA) (M. interjectum): resistant | susceptibility (REMA) [5]: resistant | IC50 (M. tuberculosis; Mycobacterium tuberculosis, 168 h, read-out: IC50 (μM) M.tb/REMA): 0.535 µM | IC90 (M. tuberculosis; Mycobacterium tuberculosis, read-out: IC90 (μM) M.tb/REMA): 1.25 µM | susceptibility (REMA) (M. tuberculosis; tested up to 80 μM): susceptible | concentration at which reduction of ESX-5 substrates EsxN and PE_PGRS proteins was observed [6]: 10 µM | susceptibility (REMA) (Escherichia coli): resistant | concentration required to reduce the bacterial load below the initial amount on day 0 (M. tuberculosis H37Rv WT): 10 µM | concentration with significant decrease of bacterial load as compared to the DMSO control (M. tuberculosis H37Rv WT): 3 µM
